How the values were obtained:
Details in all cases: human, microsomes
[1] = (§1) Fraction of total metabolites recovered as M4; type: ADME, Liver, Microsome
[2] = as §1; type: ADME, Small intestine, Microsome
[3] = (§2) Fraction of total metabolites recovered as M10; type: ADME, Small intestine, Microsome
[4] = as §2; type: ADME, Liver, Microsome

Compound recovery [1] [%] | Compound recovery [2] [%] | Compound recovery [3] [%] | Compound recovery [4] [%] | SMILES
21 | 21 |  |  | CC(C)(C)NC(=O)[C@@H]1C[C@@H]2C[C@@H](O)CC[C@@H]2CN1C[C@@H](O)[C@H](Cc1ccccc1)NC(=O)[C@H](CC(N)=O)NC(=O)c1ccc2ccccc2n1
 |  | 6 | 6 | CC(C)(CO)NC(=O)[C@@H]1C[C@@H]2CCCC[C@@H]2CN1C[C@@H](O)[C@H](Cc1ccccc1)NC(=O)[C@H](CC(N)=O)NC(=O)c1ccc2ccccc2n1

— ChEMBL document CHEMBL3706492, “CYP3A4-mediated hepatic metabolism of the HIV-1 protease inhibitor saquinavir in vitro” (Xenobiotica, 2002)
